# Laboratory results published in ChEMBL document CHEMBL3352747, “Novel heterocyclic scaffolds of GW4064 as farnesoid X receptor agonists” (Bioorg Med Chem Lett, 2015).
# Columns and labels:
# [1] = molecular target: T1, Bile acid receptor (Homo sapiens, UniProt Q96RI1); experiment: Agonist activity at FXR (unknown origin) assessed as ligand-mediated interaction of the SRC1 peptide with protein LBD by FRET assay
# T1 sequence (Q96RI1 whole entry): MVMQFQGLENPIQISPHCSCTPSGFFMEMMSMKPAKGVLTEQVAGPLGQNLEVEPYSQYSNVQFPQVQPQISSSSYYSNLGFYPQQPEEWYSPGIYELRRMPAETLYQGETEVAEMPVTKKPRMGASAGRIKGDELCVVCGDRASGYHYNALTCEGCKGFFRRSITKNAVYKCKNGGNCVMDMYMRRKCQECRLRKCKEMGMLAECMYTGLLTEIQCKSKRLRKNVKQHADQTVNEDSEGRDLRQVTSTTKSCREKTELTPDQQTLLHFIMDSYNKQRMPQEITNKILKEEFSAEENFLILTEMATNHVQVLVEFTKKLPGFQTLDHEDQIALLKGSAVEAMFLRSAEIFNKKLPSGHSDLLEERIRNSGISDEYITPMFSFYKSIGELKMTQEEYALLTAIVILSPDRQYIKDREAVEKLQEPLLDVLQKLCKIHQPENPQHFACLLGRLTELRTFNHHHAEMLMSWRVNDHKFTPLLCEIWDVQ
# [2] = molecular target: T1, Bile acid receptor; experiment: Agonist activity at FXR (unknown origin) transfected into african green monkey CV1 cells assessed as ligand-mediated transcription by luciferase reporter/ transient transfection assay; type: cell-based, CV-1
# [3] = molecular target: T2, Bile acid receptor (Homo sapiens) (UniProt Q96RI1); experiment: Agonist activity at FXR (unknown origin) assessed as ligand-mediated interaction of the SRC1 peptide with protein LBD by FRET assay relative to GW4064
# T2 sequence (whole entry): T1 sequence (Q96RI1 whole entry)
# [4] = molecular target: T2, Bile acid receptor (Homo sapiens); experiment: Agonist activity at FXR (unknown origin) transfected into african green monkey CV1 cells assessed as ligand-mediated transcription by luciferase reporter/ transient transfection assay relative to GW4064; type: cell-based; settings: CV-1
SMILES,EC50 [1],EC50 [2],Emax [3],Emax [4],EC50 ([2]; cv-1)
CC(C)c1cnn(-c2c(Cl)cccc2Cl)c1COc1ccc(/C=C/c2cccc(C(=O)O)c2)c(Cl)c1,42 nM,20 nM,105%,100%,
CC(C)c1occ(COc2c(Cl)cccc2Cl)c1COc1ccc(/C=C/c2cccc(C(=O)O)c2)c(Cl)c1,1230 nM,,51%,,< 10000 nM
CC(C)n1nnc(-c2c(Cl)cccc2Cl)c1COc1ccc(/C=C/c2cccc(C(=O)O)c2)c(Cl)c1,123 nM,145 nM,80%,47%,
CC(C)c1nnn(-c2c(Cl)cccc2Cl)c1COc1ccc(/C=C/c2cccc(C(=O)O)c2)c(Cl)c1,112 nM,35 nM,106%,125%,
CC(C)c1ncn(CCc2c(Cl)cccc2Cl)c1COc1ccc(/C=C/c2cccc(C(=O)O)c2)c(Cl)c1,617 nM,676 nM,49%,35%,

# Continued by falling EC50 [1], values first:
EC50 [1],EC50 [2],Emax [3],Emax [4],EC50 ([2]; cv-1),SMILES
309 nM,562 nM,88%,62%,,CC(C)n1cnc(COc2c(Cl)cccc2Cl)c1COc1ccc(/C=C/c2cccc(C(=O)O)c2)c(Cl)c1
110 nM,54 nM,90%,104%,,CC(C)c1oc(=O)n(Cc2c(Cl)cccc2Cl)c1COc1ccc(/C=C/c2cccc(C(=O)O)c2)c(Cl)c1
66 nM,35 nM,99%,82%,,CC(C)c1oc(=O)n(CCc2c(Cl)cccc2Cl)c1COc1ccc(/C=C/c2cccc(C(=O)O)c2)c(Cl)c1
